# Experimental data reported in patent US7592478B2, “Ligand antagonists of RAR receptors and pharmaceutical/cosmetic applications thereof” (Galderma Research & Development, priority 2002, dated 2009).
# Key:
# Assay type in all cases: cell-based
# RAR gamma = target: T1, RAR gamma (Homo sapiens, UniProt P13631); assay: Transactivation test (luciferase reporter, stably transfected HeLa cells), RAR gamma; conditions: for Kd: Schild regression vs reference agonist 4-[2-(5,5,8,8-tetramethyl-5,6,7,8-tetrahydro-2-naphthyl)propenyl]benzoic acid, read-out: RAR gamma Kdapp; for IC50: at the reference agonist concentration that gives 80% activation
# T1 sequence (P13631 185-419 limits assumed): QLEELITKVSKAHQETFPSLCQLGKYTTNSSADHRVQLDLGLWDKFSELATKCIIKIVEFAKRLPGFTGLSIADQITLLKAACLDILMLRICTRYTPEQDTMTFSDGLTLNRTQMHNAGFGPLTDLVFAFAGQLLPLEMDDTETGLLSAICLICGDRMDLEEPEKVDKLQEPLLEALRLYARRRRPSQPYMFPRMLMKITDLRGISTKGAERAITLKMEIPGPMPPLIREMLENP
# Method: (§1) The activation of receptors with an agonist (activator) in HeLa cells leads to the expression of a reporter gene, luciferase, which, in the presence of a substrate, generates light. The activation of the receptors may thus be measured by quantifying the luminescence produced after incubating the cells in the presence of a reference agonist. The inhibitory products displace the agonist from its site, thus preventing activation of the receptor. The activity is measured by quantifying the reduction in light produced. This measurement makes it possible to determine the inhibitory activity of the compounds according to the invention.
# (§2) In this study, a constant is determined which represents the affinity of the molecule for the receptor. Since this value can fluctuate depending on the basal activity and the expression of the receptor, it is referred to as the Kd apparent (KdApp).
# (§3) To determine this constant, “crossed curves” of the test product against a reference agonist, 4-[2-(5,5,8,8-tetramethyl-5,6,7,8-tetrahydro-2-naphthyl)propenyl]benzoic acid, are performed in 96-well plates. The test product is used at 10 concentrations and the reference agonist at 7 concentrations. In each well, the cells are in contact with a concentration of the test product and a concentration of the reference agonist, 4-[2-(5,5,8,8-tetramethyl-5,6,7,8-tetrahydro-2-naphthyl)propenyl]benzoic acid. Measurements are also taken for the total agonist (4-[2-(5,5,8,8-tetramethyl-5,6,7,8-tetrahydro-2-naphthyl)propenyl]benzoic acid) and inverse agonist, 4-{(E)-3-[4-(4-tert-butylphenyl)-5,5,8,8-tetramethyl-5,6,7,8-tetrahydro-2-naphthyl]-3-oxopropenyl}benzoic acid, controls.
# (§4) These crossed curves make it possible to determine the AC50 values (concentration at which 50% activation is observed) for the reference ligand at various concentrations of test product. These AC50 values are used to calculate the Schild regression by plotting a straight line corresponding to the Schild equation (“quantitation in receptor pharmacology” Terry P. Kenakin, Receptors and Channels, 2001, 7, 371-385).
# (§5) In the case of an antagonist, an IC50 value (concentration that inhibits 50% of the activity) is calculated by plotting the curve of the product at the concentration of the reference ligand that gives 80% activation.
# (§6) The HeLa cell lines used are stable transfectants containing the plasmids ERE-βGlob-Luc-SV-Neo (reporter gene) and RAR (α, β, γ) ER-DBD-puro. These cells are inoculated into 96-well plates at a rate of 10000 cells per well in 100 μl of DMEM medium without phenol red, and supplemented with 10% defatted calf serum. The plates are then incubated at 37° C. and 7% CO2 for 4 hours.
# (§7) The various dilutions of the test products, of the reference ligand (4-[2-(5,5,8,8-tetramethyl-5,6,7,8-tetrahydro-2-naphthyl)propenyl]benzoic acid), of the 100% control (100 nM 4-[2-(5,5,8,8-tetramethyl-5,6,7,8-tetrahydro-2-naphthyl)propenyl]benzoic acid) and of the 0% control (500 nM 4-{(E)-3-[4-(4-tert-butylphenyl)-5,5,8,8-tetramethyl-5,6,7,8-tetrahydro-2-naphthyl]-3-oxopropenyl}benzoic acid) are added at a rate of 5 μl per well. The plates are then incubated for 18 hours at 37° C. and 7% CO2.
# (§8) The culture medium is removed by turning over and 100 μl of a 1:1 PBS/luciferine mixture is added to each well. After 5 minutes, the plates are read using the luminescence reader.
# RAR alpha = target: T2, RAR alpha (Homo sapiens, UniProt P10276); assay: Transactivation test (luciferase reporter, stably transfected HeLa cells), RAR alpha; conditions: for Kd: Schild regression vs reference agonist 4-[2-(5,5,8,8-tetramethyl-5,6,7,8-tetrahydro-2-naphthyl)propenyl]benzoic acid, read-out: RAR alpha Kdapp; for IC50: at the reference agonist concentration that gives 80% activation
# T2 sequence (P10276 183-417 limits assumed): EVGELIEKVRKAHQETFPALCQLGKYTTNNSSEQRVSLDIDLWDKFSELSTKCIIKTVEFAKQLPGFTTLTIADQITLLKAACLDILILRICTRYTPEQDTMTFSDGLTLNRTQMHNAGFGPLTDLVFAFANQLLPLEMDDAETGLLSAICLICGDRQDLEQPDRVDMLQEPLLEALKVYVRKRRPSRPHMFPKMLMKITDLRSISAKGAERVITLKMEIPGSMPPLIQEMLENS
# Method: as §1, §2, §3, §4, §5, §6, §7, §8
# RAR beta = target: T3, RAR beta (Homo sapiens, UniProt P10826); assay: Transactivation test (luciferase reporter, stably transfected HeLa cells), RAR beta; conditions: for Kd: Schild regression vs reference agonist 4-[2-(5,5,8,8-tetramethyl-5,6,7,8-tetrahydro-2-naphthyl)propenyl]benzoic acid, read-out: RAR beta Kdapp; for IC50: at the reference agonist concentration that gives 80% activation
# T3 sequence (P10826 183-417 limits assumed): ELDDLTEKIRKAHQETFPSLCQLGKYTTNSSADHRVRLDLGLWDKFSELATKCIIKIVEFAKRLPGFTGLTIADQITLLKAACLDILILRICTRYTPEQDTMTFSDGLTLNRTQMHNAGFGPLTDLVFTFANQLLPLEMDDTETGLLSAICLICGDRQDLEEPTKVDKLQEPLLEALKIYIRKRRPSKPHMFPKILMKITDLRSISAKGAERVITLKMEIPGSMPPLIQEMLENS
# Method: as §1, §2, §3, §4, §5, §6, §7, §8
smiles,measurement,setting,value
"Cc1ccc(C2=CCC(C)(C)c3cc([Se]C#Cc4ccc(C(=O)O)c(F)c4)ccc32)cc1 [Example 9, 4-(8,8-Dimethyl-5-p-tolyl-7,8-dihydro-2-naphthylselanylethynyl)-2-fluorobenzoic acid]",Kd,RAR gamma,0.002 µM
same,IC50,RAR gamma,0.005 µM
same,Kd,RAR alpha,0.12 µM
same,IC50,RAR alpha,0.21 µM
same,Kd,RAR beta,0.008 µM
same,IC50,RAR beta,0.0128 µM
"Cc1ccc(C2=CCC(C)(C)c3cc([Se]C#Cc4ccc(C(=O)O)cc4)ccc32)cc1 [Example 1, 4-(8,8-Dimethyl-5-p-tolyl-7,8-dihydro-2-naphthylselanylethynyl)benzoic acid]",Kd,RAR gamma,0.002 µM
same,IC50,RAR gamma,0.005 µM
same,Kd,RAR alpha,0.03 µM
same,IC50,RAR alpha,0.0525 µM
same,Kd,RAR beta,0.008 µM
same,IC50,RAR beta,0.0128 µM
"CN(C)c1ccc(C2=CCC(C)(C)c3cc(C(O)C#Cc4ccc(C(=O)O)cc4)ccc32)cc1 (stereo not drawn) [Example 19, 4-{3-[5-(4-Dimethylaminophenyl)-8,8-dimethyl-7,8-dihydro-2-naphthyl]-3-hydroxyprop-1-ynyl}benzoic acid]",Kd,RAR gamma,0.06 µM
same,IC50,RAR gamma,0.15 µM
same,Kd,RAR alpha,0.5 µM
same,IC50,RAR alpha,0.875 µM
same,Kd,RAR beta,0.12 µM
same,IC50,RAR beta,0.192 µM
